# Source: PMC6889161, “Inhibitory characteristics of flavonol-3-O-glycosides from Polygonum aviculare L. (common knotgrass) against porcine pancreatic lipase” (Scientific Reports, 2019)
# Key:
# [1] = target: T1, Lipase from porcine pancreas type II (pancreatic lipase) (Sus scrofa, UniProt P00591); test: Pancreatic lipase inhibition assay (4-MUO substrate, fluorescence); format: biochemical; conditions: for Inhibition mode (type of inhibition): Lineweaver-Burk plots at 50 μM and 100 μM of compound; for IC50: from RRA of PL at various concentrations, nonlinear regression
# T1 construct: purchased Sigma-Aldrich Co. (St. Louis, MO, USA); host or cells: porcine pancreas (tissue preparation)
# T1 sequence (P00591 1-450): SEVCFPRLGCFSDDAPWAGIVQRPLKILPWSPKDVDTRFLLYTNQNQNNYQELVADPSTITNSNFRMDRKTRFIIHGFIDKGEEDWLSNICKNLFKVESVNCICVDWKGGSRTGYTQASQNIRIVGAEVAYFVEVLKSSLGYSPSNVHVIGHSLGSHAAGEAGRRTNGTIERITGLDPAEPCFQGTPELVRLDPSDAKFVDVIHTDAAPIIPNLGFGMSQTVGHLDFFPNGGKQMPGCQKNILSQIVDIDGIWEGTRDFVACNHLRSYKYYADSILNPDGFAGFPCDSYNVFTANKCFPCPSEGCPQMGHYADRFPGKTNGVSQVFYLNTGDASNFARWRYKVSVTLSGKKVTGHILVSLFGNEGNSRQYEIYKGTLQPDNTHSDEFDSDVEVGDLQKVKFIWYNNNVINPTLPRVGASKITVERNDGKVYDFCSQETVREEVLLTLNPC
# Method: The PL assay using 4-MUO as a substrate was conducted as described previously with slight modification[28],[29]. Lipase from porcine pancreas type II (i.e., pancreatic lipase) was dissolved in 50 mM Tris-HCl buffer (pH 8.0) to give 10 mg/mL, and centrifuged at 5,000 g for 10 min to remove insoluble material before the enzyme assay. Then, 50 µL of 0.5 mM 4-MUO solution dissolved in the above buffer and 100 µL of the sample solution dissolved in methanol (i.e., the inhibitor solution) were mixed in 96-well microplate to form the reaction system. The enzymatic hydrolysis was initiated by adding 50 µL of the PL solution to the reaction system (final 250 units/mL) at 37 °C. […] The inhibitory activities against PL were calculated for comparison with each other, as follows:1 Inhibition(%)=A0−AS/A0×100 where A0 is the relative fluorescence unit after the reaction for 30 min in the absence of sample (i.e., only methanol) and AS is the fluorescence unit in the presence of sample.
# To determine the IC50, the RRA of PL in the presence of the sample at various concentrations was evaluated. The reaction of PL was measured by the same procedure described above, and the RRA was calculated from the following equation:2 Relativeresidualactivity(%)=vS/v0×100 where ν0 is the initial velocity of the reaction in the absence of sample (i.e., only methanol) and νS is the initial velocity in the presence of sample. […] The type of inhibition was elucidated by evaluating the changes of kinetic parameters from Lineweaver-Burk plot as follows:3 1/v=Km/Vmax1/[S]+1/Vmax where [S] is the concentration of substrate, v is the initial velocity of the reaction, Vmax is the maximum initial velocity when substrate approaches infinite concentration, and Km is the dissociation constant of the enzyme-substrate complex (i.e., the Michaelis constant).
# [2] = system: T2, pancreatic lipase (PL); test: Fluorescence emission spectroscopy (tryptophan fluorescence quenching of PL); format: binding, porcine; conditions: for kq (bimolecular quenching constant): calculated from KSV with τ0 = 1.59 ns; for KSV (Stern-Volmer quenching constant): excitation 295 nm, 40 µM PL; for KA (binding constant) / n (number of binding sites): double-logarithmic equation
# T2 construct: purchased Sigma-Aldrich Co. (St. Louis, MO, USA); host or cells: porcine pancreas (tissue preparation)
# Method: The fluorescence spectra of PL in the presence of the sample were measured on a SpectraMax® i3 Multi-Mode Microplate Reader (Molecular Devices) as described previously with slight modification. In brief, aliquots of the sample solution at various concentrations (0−100 µM) were added into 40 µM of PL solution. The mixture was incubated for 30 min at 25 °C and 37 °C, and the fluorescence emission spectra were measured in the range of 315−400 nm upon excitation at 295 nm. The excitation and emission slit widths were set at 9 and 15 nm, respectively. The fluorescence data were analyzed by fitting to the Stern-Volmer equation for analysis of fluorescence quenching[23]:4 F0/F=1+KSV[Q]=1+kqτ0[Q] where F0 and F is the fluorescence intensity in the absence and presence of quencher, respectively, kq is the bimolecular quenching constant, τ0 is the lifetime of fluorescence in the absence of quencher, KSV is the Stern-Volmer quenching constant, and [Q] is the concentration of quencher. KSV was obtained from the slope of a plot of F0/F versus [Q] by linear regression curve fitting, and kq was calculated by KSV, where τ0 is equal to 1.59 ns[31]. The binding constant (KA) and number of binding sites (n) were obtained according to a double-logarithmic equation[32]:5 logF0−F/F=logKA+nlog[Q]
IC50 [1] [µM],Compound,Inhibition mode (type of inhibition) [1],kq (bimolecular quenching constant) ([2]; 25 °C),KSV (Stern-Volmer quenching constant) ([2]; 25 °C),kq (bimolecular quenching constant) ([2]; 37 °C),KA (binding constant) ([2]; 37 °C),n (number of binding sites) ([2]; 37 °C),KSV (Stern-Volmer quenching constant) ([2]; 37 °C),KA (binding constant) [2] [M⁻¹]
142,"O=c1c(O[C@@H]2O[C@@H](CO)[C@H](O)[C@H]2O)c(-c2ccc(O)c(O)c2)oc2cc(O)cc(O)c12 [Avicularin, quercetin-3-O-α-L-arabinofuranoside]",non-competitive or mixed-type inhibition,3.52 10^12 M^−1s^−1,0.56 10^4 M^−1,3.71 10^12 M^−1s^−1,0.94 10^4 M^−1,1.1119,0.59 10^4 M^−1,9400
79.4,O=c1c(O)c(-c2ccc(O)cc2)oc2cc(O)cc(O)c12 [Kaempferol],competitive inhibition,7.67 10^12 M^−1s^−1,1.22 10^4 M^−1,6.48 10^12 M^−1s^−1,2.07 10^4 M^−1,1.1103,1.03 10^4 M^−1,20700
,O=c1c(O)c(-c2ccc(O)c(O)c2)oc2cc(O)cc(O)c12 [Quercetin],competitive inhibition,6.29 10^12 M^−1s^−1,1.00 10^4 M^−1,5.91 10^12 M^−1s^−1,3.57 10^4 M^−1,1.1471,0.94 10^4 M^−1,35700
,myricetin-3-O-α-L-rhamnopyranoside [Myricitrin],non-competitive or mixed-type inhibition,7.48 10^12 M^−1s^−1,1.19 10^4 M^−1,7.74 10^12 M^−1s^−1,1.45 10^4 M^−1,1.0228,1.23 10^4 M^−1,14500

Compound,IC50 [1] [µM],Inhibition mode (type of inhibition) [1],kq (bimolecular quenching constant) ([2]; 25 °C),KSV (Stern-Volmer quenching constant) ([2]; 25 °C),kq (bimolecular quenching constant) ([2]; 37 °C),KA (binding constant) ([2]; 37 °C),n (number of binding sites) ([2]; 37 °C),KSV (Stern-Volmer quenching constant) ([2]; 37 °C),KA (binding constant) [2] [M⁻¹]
"C[C@@H]1O[C@@H](Oc2c(-c3ccc(O)c(O)c3)oc3cc(O)cc(O)c3c2=O)[C@H](O)[C@H](O)[C@H]1O [Quercitrin, quercetin-3-O-α-L-rhamnopyranoside]",101,non-competitive or mixed-type inhibition,8.05 10^12 M^−1s^−1,1.28 10^4 M^−1,8.30 10^12 M^−1s^−1,1.00 10^4 M^−1,0.9760,1.32 10^4 M^−1,10000
